Source: patent publication US4920124A, “N-substituted 3,4-dihydropyrimidine compounds as agents for treating disorders of cardiovascular system” (Suntory Limited, priority 1987, dated 1990)

Tests used:
vertebral artery [1] = experiment: vascular resistance of the vertebral artery in anesthetized dogs (ED30); format: in vivo, dog; conditions: Canis lupus familiaris, intravenous injection
vertebral artery [2] = experiment: time course of changes in the vascular resistance of the vertebral artery in anesthetized dogs (T1/2); format: in vivo, dog; conditions: injected with the ED30 doses
Method: Adult dogs of either sex (7~14 kg in body weight) were anesthetized with at first thiopental sodium (35 mg/kg, intraperitoneal), anesthetized with urethane (400 mg/kg, intravenous) and chloralose (60 mg/kg, intravenous) and kept under artificial respiration throughout the experiment. After thoracotomy at the left first intercostal space, the vertebral artery was exposed and blood flow was measured with intracorporeal flow probe connected to an electromagnetic flowmeter (MF-27, Nihon Kohden).
At the same time, continuous measurement of the following parameters was made: systemic blood pressure (mean pressure) at the right femoral artery, the limb lead II ECG, the heart rate with a tachometer triggered by the R wave of ECG, and the vascular resistance determined by loading a electronic divider unit (EO-601 G, Nihon Kohden) with the mean values of blood pressure and vertebral artery blood flow. All of these parameters were recorded simultaneously on a polygraph (RM-600, Nihon Kohden).
All the test compounds were injected through a cannula inserted into the femoral vein.
Selected compounds of the present invention were tested for their ability to reduce the resistance of the vertebral artery in anesthetized dogs.
The animals were injected with the ED30 doses of test compounds and the time course of changes in the vascular resistance were studied in the same manner as in Example 26. The time course of changes can be as shown schematically in FIG. 1. From the curve shown in FIG. 1, the values of T1/2 (min) (the time to reach 50% of the resistance drop) were calculated. The results are shown in Table 3, in which the compound numbers correspond to the Example numbers.

| SMILES | ED30 (vertebral artery [1]) [µg/kg] | T1/2 (the time to reach 50% of the resistance drop) (vertebral artery [2]) [min] |
| --- | --- | --- |
| CC1=NC(C)=C(C(=O)OC(C)C)C(c2ccccc2[N+](=O)[O-])N1C(=O)OCCN(Cc1ccccc1)Cc1ccc(F)cc1 (centres unmarked) [Example 3] | 2.6 |  |
| COc1cccc(CN(CCOC(=O)N2C(C)=NC(C)=C(C(=O)OC(C)C)C2c2ccccc2[N+](=O)[O-])Cc2ccccc2)c1 (centres unmarked) [Example 10] | 1.8 |  |
| CC1=NC(C)=C(C(=O)OC(C)C)C(c2ccccc2[N+](=O)[O-])N1C(=O)OCCN(Cc1ccc(Cl)cc1)Cc1cccc(Cl)c1 (centres unmarked) [Example 22] |  | 19.5 |
| CC1=NC(C)=C(C(=O)OC(C)C)C(c2ccccc2[N+](=O)[O-])N1C(=O)OCCN(Cc1ccccc1)Cc1ccc(C)cc1 (centres unmarked) [Example 5] | 2.8 |  |
| COc1ccc(CN(CCOC(=O)N2C(C)=NC(C)=C(C(=O)OC(C)C)C2c2ccccc2[N+](=O)[O-])Cc2ccc(Cl)c(Cl)c2)cc1 (centres unmarked) [Example 21] |  | 20.0 |
| CC1=NC(C)=C(C(=O)OC(C)C)C(c2cccc([N+](=O)[O-])c2)N1C(=O)OCCN(Cc1ccccc1)Cc1ccc(Cl)c(Cl)c1 (centres unmarked) [Example 24, 3-[2-{N-benzyl-N-(3,4-dichlorobenzyl)amino}ethoxycarbonyl]-5-isopropoxycarbonyl-2,6-dimethyl-4-(3-nitrophenyl)-3,4-dihydropyrimidine] |  | 16.0 |
| COc1ccc(CN(CCOC(=O)N2C(C)=NC(C)=C(C(=O)OC(C)C)C2c2ccccc2[N+](=O)[O-])Cc2ccccc2)cc1 (centres unmarked) [Example 2] | 1.8 | 8.2 |
| CC1=NC(C)=C(C(=O)OC(C)C)C(c2ccccc2[N+](=O)[O-])N1C(=O)OCCN(Cc1ccccc1)Cc1ccccc1Cl (centres unmarked) [Example 13] | 4.7 |  |
| CC1=NC(C)=C(C(=O)OC(C)C)C(c2ccccc2[N+](=O)[O-])N1C(=O)OCCN(Cc1ccccc1)Cc1cccc(Cl)c1 (centres unmarked) [Example 14] |  | 10.6 |
| CC1=NC(C)=C(C(=O)OC(C)C)C(c2ccccc2[N+](=O)[O-])N1C(=O)OCCN(Cc1ccccc1)Cc1ccc(Cl)cc1 (centres unmarked) [Example 4] | 2.9 |  |
| CC1=NC(C)=C(C(=O)OC(C)C)C(c2ccccc2[N+](=O)[O-])N1C(=O)OCCN(Cc1ccccc1)Cc1c(Cl)cccc1Cl (centres unmarked) [Example 25] |  | 11.7 |
| CC1=NC(C)=C(C(=O)OC(C)C)C(c2ccccc2[N+](=O)[O-])N1C(=O)OCCN(Cc1ccccc1)Cc1ccc(Cl)c(Cl)c1 (centres unmarked) [Example 1, 3-[2-{N-benzyl-N-(3,4-dichlorobenzyl)amino}ethoxycarbonyl]-5-isopropoxycarbonyl-2,6-dimethyl-4-(2-nitrophenyl)-3,4-dihydropyrimidine] | 2.1 | > 25.0 |
| CC1=NC(C)=C(C(=O)OC(C)C)C(c2ccccc2[N+](=O)[O-])N1C(=O)OCCN(Cc1ccc(F)cc1)Cc1ccc(F)cc1 (centres unmarked) [Example 6] | 1.3 |  |
| CC1=NC(C)=C(C(=O)OC(C)C)C(c2ccccc2[N+](=O)[O-])N1C(=O)OCCN(Cc1ccc(Cl)cc1)Cc1ccc([N+](=O)[O-])cc1 (centres unmarked) [Example 20] |  | 10.2 |
| CC1=NC(C)=C(C(=O)OC(C)C)C(c2ccccc2[N+](=O)[O-])N1C(=O)OCCN(Cc1ccccc1)Cc1ccc(C(F)(F)F)cc1 (centres unmarked) [Example 16] |  | 7.9 |
| CC1=NC(C)=C(C(=O)OC(C)C)C(c2ccccc2[N+](=O)[O-])N1C(=O)OCCN(Cc1ccccc1)Cc1ccccc1F (centres unmarked) [Example 9] | 2.3 |  |
| CC1=NC(C)=C(C(=O)OC(C)C)C(c2ccccc2[N+](=O)[O-])N1C(=O)OCCN(Cc1ccccc1)Cc1cccc(F)c1 (centres unmarked) [Example 11] | 2.1 |  |
| CC1=NC(C)=C(C(=O)OC(C)C)C(c2ccccc2[N+](=O)[O-])N1C(=O)OCCN(Cc1ccccc1)Cc1ccc(Cl)cc1Cl (centres unmarked) [Example 15] |  | > 20.0 |
